From patent US4226610A, “Herbicidal compounds, preparation thereof and herbicides containing the same” (Meiji Selka Kaisha, Ltd., priority 1978, dated 1980)
Counter-ions that a name gives are not always drawn.

System: water hyacinth
Assay: Experiment 5 foliar application to water hyacinths
Type: in vivo, Eichhornia crassipes Solms
Design: key to Killing index: 0 = no effect, 5 = death
Conditions: for Reproduction-inhibiting effect: 3 months; for Killing index: 21 days
Text: The detail of the assessment made in the following Experiments of the invention was as follows:
Four months after treatment, evaluation was made for inhibition of reproduction expressed in terms of symbols ranging from (-) to (+++) where (-) means no reproduction, namely complete suppression of reproduction, (±) remarkable suppression of reproduction; (+) considerable suppression of reproduction; (++) medium supprestion of reproduction; and (+++) no suppression of reproduction.
Water was placed in 20 cm.×30 cm. plastic vessels and a liquid fertilizer was added thereto. Two water hyacinths were floated in each vessel.
0.1 or 0.2% aqueous solutions of each of the compounds of the invention listed in Table 7 were sprayed by foliar application in an amount of 100 liter per 10 are. As a surfactant, 0.1% of octylphenyl polyoxyethanol was added.
The killing index (0, no effect; 5, death) after 21 days and 3 months, and the reproduction-inhibiting effect (-, no reproduction; +++, maximum reproduction) after 3 months were determined.

SMILES | Reproduction-inhibiting effect (0.1%) | Reproduction-inhibiting effect (0.2%) | Killing index (0.2%)
CP(=O)(O)CC[C@H](N)C(=O)O [L-AMPB dipotassium salt] | ± | - | 
CP(=O)(O)CC[C@H](N)C(=O)O [L-AMPB disodium salt] | ± | - | 
CP(=O)(O)CC[C@H](N)C(=O)O [L-AMPB monodiethylammonium salt] | ± | - | 
CP(=O)(O)CCC(N)C(=O)O (racemic) [DL-AMPB monodiethylammonium salt] | ++ | ± | 
CP(=O)(O)CCC(N)C(=O)O (racemic) [DL-AMPB disodium salt] | ++ | ± | 
C[C@H](NC(=O)[C@H](C)NC(=O)[C@@H](N)CCP(C)(=O)O)C(=O)O [SF-1293 monopotassium salt] | + | - | 4.5
C[C@H](NC(=O)[C@H](C)NC(=O)[C@@H](N)CCP(C)(=O)O)C(=O)O [SF-1293 monodiisopropylammonium salt] | + | - | 4.5
CP(=O)(O)CCC(N)C(=O)O (racemic) [DL-AMPB dipotassium salt] | ++ | ± | 
C[C@H](NC(=O)[C@H](C)NC(=O)[C@@H](N)CCP(C)(=O)O)C(=O)O [SF-1293 mono-n-butylammonium salt] | + | - | 4.5
CP(=O)(O)CCC(N)C(=O)O (racemic) [DL-AMPB diammonium salt] | ++ | ± | 
C[C@H](NC(=O)[C@H](C)NC(=O)[C@@H](N)CCP(C)(=O)O)C(=O)O [SF-1293 monodiethylammonium salt] | + | - | 4.5
CP(=O)(O)CCC(N)C(=O)O (racemic) [DL-AMPB mono-n-butylammonium salt] | ++ | ± | 
C[C@H](NC(=O)[C@H](C)NC(=O)[C@@H](N)CCP(C)(=O)O)C(=O)O [SF-1293 diammonium salt] | + | - | 4.5
CP(=O)(O)CC[C@H](N)C(=O)O [L-AMPB mono-n-butylammonium salt] | ± | - | 
CP(=O)(O)CC[C@H](N)C(=O)O [L-AMPB monoisopropylammonium salt] | ± | - | 
CP(=O)(O)CC[C@H](N)C(=O)O [L-AMPB diammonium salt] | ± | - | 
CP(=O)(O)CC[C@H](N)C(=O)O [L-AMPB, L-2-amino-4-methylphosphinobutanoic acid] | ± | - | 
CP(=O)(O)CCC(N)C(=O)O (racemic) [DL-AMPB monopotassium salt] | ++ | ± | 
C[C@H](NC(=O)[C@H](C)NC(=O)[C@@H](N)CCP(C)(=O)O)C(=O)O [SF-1293 dipotassium salt] | + | - | 4.5
CP(=O)(O)CCC(N)C(=O)O (racemic) [DL-AMPB, DL-2-amino-4-methylphosphinobutanoic acid] | ++ | ± | 
C[C@H](NC(=O)[C@H](C)NC(=O)[C@@H](N)CCP(C)(=O)O)C(=O)O [SF-1293, (L-2-amino-4-methylphosphinobutyryl)-L-alanyl-L-alanine] | + | - | 4.5
